Measurements published in patent US20060263403A1, “Compositions and methods for controlling insects involving the tyramine receptor” (priority 2003, published 2006).
Read-outs that look alike come from different tables or passages of the source.

Legend:
[1] = molecular target: T1, Drosophila melanogaster tyramine receptor (TyrR) (Drosophila melanogaster, UniProt P22270, C261Y); experiment: biochemical; format: binding
T1 construct: The open reading frame encodes a protein of 601 amino acids; expressed in transfected cells
T1 sequence (P22270 27-601 C261Y): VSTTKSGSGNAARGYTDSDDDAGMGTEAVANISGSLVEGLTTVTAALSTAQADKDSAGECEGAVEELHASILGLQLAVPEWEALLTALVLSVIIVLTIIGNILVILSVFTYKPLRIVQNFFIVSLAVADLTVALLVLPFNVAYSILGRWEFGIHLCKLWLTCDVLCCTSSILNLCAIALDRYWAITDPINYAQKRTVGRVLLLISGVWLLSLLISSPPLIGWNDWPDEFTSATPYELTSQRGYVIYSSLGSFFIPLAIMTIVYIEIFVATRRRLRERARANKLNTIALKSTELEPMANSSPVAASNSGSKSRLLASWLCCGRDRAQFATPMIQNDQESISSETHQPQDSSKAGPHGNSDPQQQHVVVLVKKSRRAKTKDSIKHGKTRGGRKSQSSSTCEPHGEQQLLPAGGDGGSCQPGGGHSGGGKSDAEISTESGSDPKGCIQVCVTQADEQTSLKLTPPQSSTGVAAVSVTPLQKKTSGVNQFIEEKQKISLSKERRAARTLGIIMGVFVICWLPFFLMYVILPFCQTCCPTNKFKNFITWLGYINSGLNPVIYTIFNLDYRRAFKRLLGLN
Description: All steps are performed at 4° C. or on ice. Cells grown in Drosophila media are harvested in the same media by scraping from the dishes and then rinsing dishes with PBS. The cells are centrifuged at 1000 g for 3 min, washed once with PBS and centrifuged again as previously described. The cells are suspended in ice cold hypotonic buffer (10 mM Tris-Cl, pH 7.4), incubated on ice for 10 min, and lysed using a glass dounce homogenizer and tight glass pestle (Kontes Glass Co., Vineland, N.J.) with 10 strokes. Nuclei are pelleted by centrifugation at 600 g for 5 min. The supernatant is decanted and centrifuged at 30,000 g for 30 min to pellet a crude membrane fraction. The pellet is suspended in binding buffer (50 mM Tris-Cl, 5 mM MgCl2, pH 7.4). Protein concentration is determined by the Bradford Assay (Bio-Rad Laboratories, Hercules, Calif.). Membranes are frozen on dry ice then stored at −75° C. in aliquots.
For the receptor binding assay, radioligand binding is performed in 500 μl binding buffer containing 10-50 μg membrane protein and 4 nM ^3H-tyramine. The binding reaction is incubated at 23° C. in the presence and absence of 10 μM unlabeled tyramine. Reactions are terminated after 60 min by addition of 3 ml ice cold binding buffer and filtered over GF/C filters that has been soaked for 30 min in 0.3% polyethylenimine. Filters are rinsed one additional time with 3 ml binding buffer. […] The binding activity of tyramine receptor is also studied in the presence and absence of five plant essential oils, shown in FIG. 1. Binding data is analyzed by Scatchard plots using the software GraphPad Prism (San Diego, Calif.). All binding analyses are performed 3 times with duplicate samples in each assay.
The binding activity of ^3H-tyramine to membranes expressing the tyramine receptor is performed in the presence and absence of five plant essential oils. These chemicals are selected based on their insecticidal activity and the absence or presence and location of the hydroxyl group within the molecule. […] The specific activity is calculated as the difference between counts in the presence and absence of test chemical.

[2] = molecular target: T1, Drosophila melanogaster tyramine receptor (TyrR); experiment: Intracellular calcium assay (Fura-2 AM) in S2 cells stably expressing pAC-TyrR; format: cell-based; details: for change in [Ca2+]i in response to plant essential oil: 25 μM, compared to EtOH treatment
Description: (§1) Cells are washed once with insect saline buffer. Cells are collected by scraping and suspended at 1×10^6 cells/ml in insect saline buffer with 5 μM Fura-2 AM. Cells are incubated at 23° C. for 1 hr in the dark, centrifuged, suspended in 1 ml insect saline buffer, and used immediately for calcium measurements. […] This assay is performed four separate times. Data are normalized by dividing each value by the background fluorescence at the beginning of the assay before adding test ligand.

[3] = molecular target: T1, Drosophila melanogaster tyramine receptor (TyrR); experiment: cell-based; format: cell-based; details: for decrease in cAMP production: 25 μM, vs ethanol-treated cells 0.9056±0.078 pmol cAMP
Description: (§2) Twenty four hours before cell treatment, 300,000 cells from clone#2 and control cells are plated in 1 ml media with 25 μg blasticidin/ml into 12 well dishes (4.5 cm^2). For cell treatment, the media is aspirated and 1 ml PBS with 300 μM IBMX (3-isobutyl-1-methylxanthine) and the test reagent is added. […] After 10 min incubation, the PBS is aspirated and cells are incubated with 70% ethanol for 12 hours at −20° C. The cellular debris is centrifuged, and then the supernatant is removed and lyophilized to dryness. The amount of cAMP in the extract is determined by using a cAMP binding protein from the ^3H-cAMP Biotrak Assay System (Amersham Biosciences, Piscataway, N.J.) as per the manufacturer's instructions. Cell treatment is performed 3 times with duplicates at each concentration. To test the effects of calcium chelation on cAMP levels, the cells are incubated with 20 μM BAPTA/AM for 10 min before the addition of TA.

[4] = test system: wild type Drosophila melanogaster; experiment: Topical toxicity bioassay against wild type Drosophila melanogaster fly; format: in vivo; details: for Wild type-calculated LD50 values: topical application, probit analysis; for % Mortality at LD50 of wild type Drosophila melanogaster strain: Wild type: topical dose equal to wild type LD50, 24 h after treatment
Description: (§3) Quantitative Structure Activity Relationships (QSARs) for five monoterpenoid plant essential oils is determined against wild type and tyramine receptor mutant (TyrR^neo30) Drosophila melanogaster strains. […] In addition, monocyclic-unsaturated alcohol (a-terpenoil), and a monocylic di-unsaturated ketone (L-carvone) are also tested. […] Acetonic solutions of plant essential oils are prepared and different concentrations of each, that gave from 10%-100% mortality, are applied by topical application. Three replicates, with 5 flies per replicate, are used for each concentration. Controls treated with the same volume (0.5 μl/fly) of acetone. […] To determine whether the tyramine receptor is involved in the toxicity of tested plant essential oils, tyramine receptor mutant (TyrR^neo30) Drosophila melanogaster strain is topically treated with a dose equivalent to the determined LD50 for wild type strain. The mortality is calculated 24 hrs after treatment. Three replicates and 5 insects per replicate are used for the bioassay of each chemical. This bioassay is repeated five times.

[5] = test system: tyramine receptor mutant (TyrR^neo30) Drosophila melanogaster; format: in vivo; details: for toxicity against TyrR^neo30 strain compared with wild type: topical application
Description: as §3

[6] = test system: S2 cells transfected with plasmid lacking TyrR; experiment: cAMP assay in control S2 cells transfected with plasmid lacking TyrR; format: cell-based, Drosophila melanogaster; details: TA up to 100 μM, compared to non-transfected cells
Description: as §2

[7] = test system: S2 cells transfected with pAC lacking an insert; experiment: Intracellular calcium assay in S2 cells transfected with pAC lacking an insert; format: cell-based, Drosophila melanogaster; details: 10 μM TA, compared to untransfected S2 cells
Description: as §1

[8] = molecular target: T1, Drosophila melanogaster tyramine receptor (TyrR); details: saturation binding, 0.1-30 nM 3H-tyramine, membranes of clone#2 S2 cells; read-out: Kd for specific binding

## NCC(O)c1ccc(O)cc1 (racemic) [Octopamine (OA), DL-octopamine]
[1]; competitive binding vs 4 nM 3H-tyramine, membranes from Schneider Drosophila cells expressing TyrR, mean and standard deviation, read-out: Ki
  Ki: 28.7 µM

## CC(=O)OCOC(=O)CN(CC(=O)OCOC(C)=O)c1ccccc1OCCOc1ccccc1N(CC(=O)OCOC(C)=O)CC(=O)OCOC(C)=O [BAPTA/AM]
[2]; 20 μM BAPTA/AM, 1 μM TA
  effect on TA-induced increase in free [Ca2+]i: inhibit the increase in free [Ca^2+]i

## CN(C)CCCN1c2ccccc2Sc2ccc(Cl)cc21 [Chlorpromazine]
[1]
  Ki: 0.193 ± 0.05 µM

## NCCc1ccc(O)c(O)c1 [Dopamine (DA), Dopamine]
[1]
  Ki: 57.5 ± 3.91 µM

## NCCc1c[nH]cn1 [Histamine (His), Histamine]
[1]
  Ki: 193 ± 16.8 µM

## C=C(C)[C@@H]1CC=C(C)C(=O)C1 [L-carvone, p-mentha-6,8-dien-2-one]
[3]; 300 μM IBMX
  decrease in cAMP production: 24%
[2]
  change in [Ca2+]i in response to plant essential oil: remarkable increase in [Ca^2+]i
[4]
  Wild type-calculated LD50 values: 2.3 μg/fly
  % Mortality at LD50 of wild type Drosophila melanogaster strain: Wild type: 37.3%
[4]; wild type strain
  toxicity of L-carvone relative to a-terpineol: about 5 fold
[5]
  toxicity against TyrR^neo30 strain compared with wild type: does not affect the toxicity
[5]; topical dose equal to wild type LD50, 24 h after treatment
  % Mortality at LD50 of wild type Drosophila melanogaster strain: TyrR^neo30: 38.7%

## Cc1ccc(N(CC2=NCCN2)c2cccc(O)c2)cc1 [Phentolamine]
[1]
  Ki: 0.125 ± 0.02 µM

## NCCc1c[nH]c2ccc(O)cc12 [Serotonin (SE), Serotonin]
[1]
  Ki: 89.5 ± 9.01 µM

## NCCc1ccc(O)cc1 [Tyramine (TA), Tyramine]
[1]
  Ki: 1.27 µM
[1]; ratio of Ki values
  affinity of TA relative to DL-octopamine for TyrR: about 22.58 fold
[3]
  IC50: 5.8 µM
[3]; TA 10 μM, 300 μM IBMX, basal 0.601±0.080 pmol cAMP
  decrease in the basal level of cAMP: 18%
[2]; 1 μM TA, clone#2 cells
  change in [Ca2+]i in response to TA: rapid increase in [Ca^2+]i
[2]; TA application
  duration of transient peak in [Ca2+]i level: ~20 s
[2]; clone#2 cells
  lowest concentration that can increase [Ca2+]i levels: 20 nM
[6]
  effect on cAMP levels in control cells: significant effects on cAMP levels as compared to non-transfected cells are not produced
[7]
  effect on [Ca2+]i in control cells: does not increase the level of [Ca^2+]i

## COC(=O)[C@@H]1[C@H]2C[C@H]3c4[nH]c5ccccc5c4CCN3C[C@@H]2CC[C@@H]1O [Yohimbine]
[1]
  Ki: 0.071 ± 0.001 µM

## NCCc1ccc(O)cc1 [^3H-tyramine]
[8]
  Kd: 0.00256 µM

## CC1=CCC(C(C)(C)O)CC1 (stereo not drawn) [a-terpineol, p-menth-1-en-8-ol]
[3]; 300 μM IBMX
  decrease in cAMP production: 22%
[2]
  change in [Ca2+]i in response to plant essential oil: remarkable increase in [Ca^2+]i

## Cc1ccc(C(C)C)cc1 [p-cymene, 1-methyl-4-(1-methylethyl)benzene]
[3]; 300 μM IBMX
  decrease in cAMP production: 13%
[2]
  change in [Ca2+]i in response to plant essential oil: slight increase in [Ca^2+]i
[4]
  Wild type-calculated LD50 values: 15.5 μg/fly
  % Mortality at LD50 of wild type Drosophila melanogaster strain: Wild type: 57.3%
[5]; in vivo
  % Mortality at LD50 of wild type Drosophila melanogaster strain: TyrR^neo30: 56.0%
[5]
  toxicity against TyrR^neo30 strain compared with wild type: does not affect the toxicity
